Patent US11565003B2, “Mechanical opening of lipid bilayers by molecular nanomachines” (William Marsh Rice University, priority 2016, dated 2023)
Residues, ends and D or L forms follow the SMILES beside them. *: point of attachment. X1 = C[C@@H]1Cc2ccc3ccccc3c2/C1=C1\c2cc(C#CCCN=[N+]=[N-])ccc2Sc2ccc(C#CCCn3cc(C(=O)*)nn3)cc21

What was measured:
[1] = tested on: NIH 3T3 cells; assay: UV-activated nanomechanical necrosis, live cell confocal microscopy, NIH 3T3; assay type: cell-based, mouse; conditions: for Time of Full Necrosis / Time of Initial Necrosis / % acceleration for full necrosis: 355 nm UV; for % acceleration for full necrosis: versus UV upon blank cells
Method: (§1) Following the synthetic bilipid vesicle experiments, nanomechanical action upon live cells was studied using confocal microscopy aided by a super-resolution technique called Phase Modulation Nanoscopy. Applicants used two experimental methods. In the first method (Method A), the molecular motors were loaded into the cell media and the imaging was initiated within 5 minutes to 24 hours. In the second method, (Method B), the molecular motors were loaded into the cell media, incubated for 30 minutes to 24 hours, and then washed three times with fresh molecular motor-free media before imaging. […]
(§2) Microscopy cells were seeded in untreated iBibi 100 μL live cell channels and allowed to grow to 40% to 60% confluence, at 37° C. in 5% CO2. At this stage, the medium was replaced and cells were treated with the studied nanomachines and co-stains as appropriate, with 0.1% DMSO (as detailed above) present in the final imaging medium. For live cell imaging, DMEM/F12 media (10% FBS) lacking phenol red was used from this point onwards. Following incubation, where Method B was used, the channels were washed with live cell imaging media and imaged using a purpose build incubator housing the microscope maintaining 37° C., 5% CO2 and 10% humidity.
(§3) All live cell imaging experiments used either NIH 3T3 mouse skin fibroblast cells, PC-3 cells, a grade 3 human prostate adenocarcinoma, or Chinese hamster ovary cells (CHO). These are all well-studied cell lines with discrete morphological compositions. Each molecular machine was used as a stock solution at 0.10 to 1.00 μM with total dimethyl sulfoxide (DMSO) concentrations not exceeding 0.1% in the final cell media in order to avoid unwanted cell membrane permeabilization, the DMSO being required for solubility of the organic nanomachines. All loading experiments are carried out in a light-suppressed manner and the possibility of induced or accelerated uptake due to interaction between the molecular motors and the applied co-stain has been eliminated using a series of individual and reversed loading experiments.
(§4) All experimental imaging parameters (i.e., laser beam size, confocal pinhole size, laser intensity, line scanning speed, scanning area (field of view, FOV), and line averaging sequences) were kept constant throughout the experiments. The accuracy and errors associated with the establishment of accelerated necrosis are determined based on one dual channel imaging sequence, which takes 15 seconds in total. This imaging sequence has been carefully established using untreated live cells.
(§5) Steady state fluorescence images were recorded using a PhMoNa enhanced Leica SP5 II LSCM equipped with a HCX PL APO 63×/1.40 NA LambdaBlue Oil immersion objective. As an initial control experiment to establish the UV-induced cell toxicity threshold, while mitigating voxel exposure and ensuring sufficient laser dwell time, an imaging sequence has been established to monitor cell morphological and physiological changes as a function of time. All experiments used cell-line-determined culture medium containing 0.1% DMSO.
(§6) The applied 100 Hz detection sequence was based on a bidirectional dual-channel continuous scanning method where a minimalistic non-damaging visible laser light (458 nm, 0.2 mW) is used in conjunction with the above detailed UV exposure. This is set as a 2 line/scan accumulation parallel acquisition sequence that is recorded as a function of time. Studied channels correspond to transmission images and UV-induced mitochondrial auto-fluorescence detected at 460 to 550 nm. Applicants further confirmed that the effectiveness of monitoring the UV-activated nanomechanical action on live cells using a conventional CW mercury-arc excitation source equipped with an epi-fluorescence setup consisting of a Zeiss Axiovert 200M inverted microscope, as discussed in FIGS. 18A-C. […]

[2] = tested on: PC-3 cells; assay: UV-activated nanomechanical necrosis, live cell confocal microscopy, PC-3; assay type: cell-based, human; conditions: for Time of Full Necrosis / Time of Initial Necrosis / % acceleration for full necrosis: 355 nm UV; for % acceleration for full necrosis: versus UV upon blank cells
Method: Following the synthetic bilipid vesicle experiments, nanomechanical action upon live cells was studied using confocal microscopy aided by a super-resolution technique called Phase Modulation Nanoscopy. Applicants used two experimental methods. In the first method (Method A), the molecular motors were loaded into the cell media and the imaging was initiated within 5 minutes to 24 hours. In the second method, (Method B), the molecular motors were loaded into the cell media, incubated for 30 minutes to 24 hours, and then washed three times with fresh molecular motor-free media before imaging.
Next, Applicants used the smaller nanomachine, 3. Initial control experiments (blank) were performed without nanomachines being present. UV-induced (355 nm) PC-3 necrosis is not initiated until approximately scan 20 (corresponding to 300 second continuous scanning UV exposure, 400 nJ/voxel total dwell time), characterized by massive disruption and rupture of the mitochondrial network and subsequent well-pronounced auto-fluorescent signal detectable in the nucleoli and nucleus wall (FIG. 7A). This is observable by the nucleoli membrane permeabilization and DNA damage at the onset of necrosis. The UV-induced necrosis reaches final stages at approximately scan 40 (corresponding to 600 seconds) that is consistent with characteristic extracellular membrane rupture and homogenous cytosolic auto-fluorescence, indicating loss of cellular organelle boundaries.
as §2, §3, §4
as §5, with “DMSO. […]” for “DMSO.”

[3] = tested on: CHO cells; assay: UV-activated nanomechanical necrosis, live cell confocal microscopy, CHO; assay type: cell-based, Chinese hamster; conditions: 355 nm UV; for % acceleration for full necrosis: versus UV upon blank cells
Method: as §1, §2, §3, §4, §5, §6

[4] = tested on: PC-3 cells; assay: 24 hours incubation without UV: proliferation and apoptosis (Annexin V, Image Cytometry); assay type: cell-based, human
Method: When PC-3 cells are loaded at 0.5 or 1.0 μM with 9 or 10, washed three times (Method B) or unwashed (Method A) after 24 hours of incubation, the cells visually appear without major signs of toxicity. However, the cells which had been incubated with 9 or 10 over 24 hours were not dividing as prolifically. The cultures appear to be populated ˜25% less in the presence of 9 and 20% of the cells in 10 compared to control untreated cells (FIGS. 12A-E).
In order to further investigate this point, these cells were collected via gentle centrifugation and re-suspended in fresh PBS and analyzed by Image Cytometry. Using Annexin V, these cells were all confirmed to show signs of apoptosis at 93±5%. This is in contrast to the remaining coverslip surface-bound cells that appear healthy.
These latter types of non-apoptotic cells show identical percentage of necrosis acceleration upon subsequent UV-activation of the cell-surface bound nanomachines compared to their shorter incubation time analogues. Thus, it appears that, upon 24 hour incubation, a noticeable amount of cells have nanomachines 9 and 10 either bound to vital cell membrane channels or transport proteins or they are internalized, subsequently shutting down some natural homeostatic mechanisms that leads to programmed cell death (FIGS. 12A-E). Furthermore, this is not the case with shorter incubation times regardless of whether Method A or B is used.

[5] = NIH 3T3, Method B (washed three times)
[6] = PC-3, Method B (washed three times)

## CC(C)[C@H](NC(=O)[C@H](CCCNC(=N)N)NC(=O)[C@@H](NC(=O)[C@H](CC(N)=O)NC(=O)[C@H](CO)NC(=O)c1cn(CCC#Cc2ccc3c(c2)/C(=C2/c4c(ccc5ccccc45)C[C@H]2C)c2cc(C#CCCN=[N+]=[N-])ccc2S3)nn1)[C@@H](C)O)C(=O)N[C@@H](C)C(=O)N1CCC[C@H]1C(=O)O [Compound 10] (X1-SNTRVAP-OH)
[1]; NIH 3T3, Method A (no washing)
  Time of Full Necrosis: 540 s
  Time of Initial Necrosis: 270 s
[1]; NIH 3T3, Method A
  % acceleration for full necrosis: 10%
[1]; [5]
  Time of Full Necrosis: 600 s
  Time of Initial Necrosis: 300 s
[1]; NIH 3T3, Method B
  % acceleration for full necrosis: 0%
[1]; NIH 3T3, incubated 24 hours
  UV-accelerated nanomechanical necrosis after 24 hours incubation (in words): less than half the efficiency compared to identical experiments using the targeted PC-3 cells
[2]; NIH 3T3 and CHO as non-targeted controls
  selectivity for targeted PC-3 cells over non-targeted control cells (in words): selectively target the PC-3 cell line over CHO cells
[2]; PC-3, Method A (no washing)
  Time of Full Necrosis: 420 s
  Time of Initial Necrosis: 195 s
[2]; PC-3, Method A
  % acceleration for full necrosis: 30%
[2]; [6]
  Time of Full Necrosis: 435 s
  Time of Initial Necrosis: 210 s
[2]; PC-3, Method B
  % acceleration for full necrosis: 27.5%
[2]; PC-3, incubated 30 minutes to 4 hours, washed three times, 24 hours rotor free media
  accelerated necrosis upon UV-activation after washing and further 24 hours in rotor free media: 25%
[3]; Method A (no washing)
  Time of Full Necrosis: 540 s
  Time of Initial Necrosis: 270 s
[3]; Method A
  % acceleration for full necrosis: 10%
[3]; Method B (washed three times)
  Time of Full Necrosis: 600 s
  Time of Initial Necrosis: 300 s
[3]; Method B
  % acceleration for full necrosis: 0%
[4]; PC-3, 0.5 or 1.0 μM, 24 hours of incubation, no UV
  cultures populated less compared to control untreated cells: 20%
[4]; PC-3, 24 hours incubation, cells collected from culture media
  mobilized cells showing signs of apoptosis (Annexin V): 93±5%
